This is an account of results in ChEMBL document CHEMBL4346715, “Antibacterial activity study of 1,2,4-triazole derivatives” (Eur J Med Chem, 2019).

In brackets after ≈: the same amount, converted by molar mass.

One experiment relates to Listeria monocytogenes. The experiment can be described thus: Antibacterial activity against Listeria monocytogenes ATCC 35152 after 24 hrs by broth microdilution method. It is filed as functional. The following applies: ATCC 35152, 24 h. (Broth dilution looks for growth in wells or tubes with falling amounts of substance.)
Experiment [1] relates to Staphylococcus aureus. Briefly: Antibacterial activity against Staphylococcus aureus ATCC 49444 after 24 hrs by broth microdilution method. The class given is functional. The note with it: ATCC 49444, 24 h.
Experiment [2] concerns Pseudomonas aeruginosa. Briefly: Antibacterial activity against Pseudomonas aeruginosa ATCC 27853 after 24 hrs by broth microdilution method. It is filed as functional. The following applies: ATCC 27853, 24 h.
A further experiment concerns Salmonella typhimurium. Briefly: Antibacterial activity against Salmonella typhimurium ATCC 14028 after 24 hrs by broth microdilution method. The note with it: Salmonella enterica, ATCC 14028, 24 h. It is filed as functional, Salmonella enterica subsp. enterica serovar Typhimurium.
Experiment [3] relates to Escherichia coli. The experiment can be described thus: Antibacterial activity against Escherichia coli after 24 hrs by broth microdilution method. The class given is functional.
The next experiment concerns Bacillus cereus. The experiment can be described thus: Antibacterial activity against Bacillus cereus ATCC 10876 after 24 hrs by microdilution method. It is filed as functional. The note with it: ATCC 10876, 24 h.
Another experiment has as its system Enterococcus faecalis. Briefly: Antibacterial activity against Enterococcus faecalis ATCC 29212 after 24 hrs by microdilution method. The following applies: ATCC 29212, 24 h. It is filed as functional.
The test system of experiment [4] is Staphylococcus aureus. Briefly: Antibacterial activity against Staphylococcus aureus ATCC 25923 after 24 hrs by microdilution method. It is filed as functional. The note with it: ATCC 25923, 24 h.
The next experiment concerns Proteus mirabilis. The experiment can be described thus: Antibacterial activity against Proteus mirabilis ATCC 35659 after 24 hrs by microdilution method. The class given is functional. The note with it: ATCC 35659, 24 h.
Experiment [5] deals with Escherichia coli. The experiment can be described thus: Antibacterial activity against Escherichia coli ATCC 25922 after 24 hrs by microdilution method. The following applies: ATCC 25922, 24 h. It is filed as functional.
Experiment [6] deals with Pseudomonas aeruginosa. Briefly: Antibacterial activity against Pseudomonas aeruginosa ATCC 27853 after 24 hrs by microdilution method. The class given is functional. The following applies: ATCC 27853, 24 h.
Experiment [7] relates to Candida albicans. The experiment can be described thus: Antifungal activity against Candida albicans ATCC 50193 after 24 hrs by microdilution method. The class given is functional. The note with it: ATCC 50193, 24 h.
The test system of the next experiment is Aspergillus brasiliensis. Briefly: Antifungal activity against Aspergillus brasiliensis ATCC 16404 after 24 hrs by microdilution method. The class given is functional. The note with it: ATCC 16404, 24 h.
The subject of experiment [8] is Staphylococcus aureus. The experiment can be described thus: Antibacterial activity against methicillin-resistant Staphylococcus aureus incubated for 18 hrs post 30 mins pre-diffusion by disk diffusion method. The class given is functional. A general note: A growth-free zone around the sample is the usual read-out of agar diffusion tests.
The next experiment deals with Bacillus anthracis. Briefly: Antibacterial activity against Bacillus anthracis incubated for 18 hrs post 30 mins pre-diffusion by disk diffusion method. The class given is functional.
For experiment [9], the system named is Candida albicans. Briefly: Antifungal activity against Candida albicans. The class given is functional.
In a further experiment the test system is Aspergillus niger. Briefly: Antifungal activity against Aspergillus niger. The class given is functional.

One may read the MIC as the smallest concentration in the dilution series that meets the test's criterion for growth inhibition. Turning to `Cc1nc(-c2ccccc2)sc1-c1nnc(S)n1/N=C/c1ccc(O)cc1`, the MIC against Listeria monocytogenes, in the experiment on Staphylococcus aureus [1], against Pseudomonas aeruginosa [2], in the experiment with Salmonella typhimurium and against Escherichia coli [3] was 1.95 to 62.5 µg/mL (≈ 4.96 to 159 µM) each time.
Consider `O=C(O)c1cn(C2CC2)c2cc(N3CCNCC3)c(F)cc2c1=O` [CIPROFLOXACIN], for which the minimal inhibitory concentration (MIC) in the experiment with Listeria monocytogenes was 3.9 µg/mL (≈ 11.8 µM); against Pseudomonas aeruginosa [2], 3.9 µg/mL (≈ 11.8 µM); against Bacillus cereus, 1 to 8 µg/mL (≈ 3.02 to 24.1 µM); with Enterococcus faecalis, 1 to 8 µg/mL (≈ 3.02 to 24.1 µM); against Staphylococcus aureus [4], 1 to 8 µg/mL (≈ 3.02 to 24.1 µM); against Proteus mirabilis it was 1 to 8 µg/mL (≈ 3.02 to 24.1 µM). Also, the minimum inhibitory concentration (MIC) with Escherichia coli [5], against Pseudomonas aeruginosa [6], in the experiment on Candida albicans [7] and in the experiment on Aspergillus brasiliensis was 1 to 8 µg/mL (≈ 3.02 to 24.1 µM) in each case.
Regarding `Cc1nc(-c2ccccc2)sc1-c1nnc(S)n1/N=C/c1cccc(Cl)c1Cl`, the minimum inhibitory concentration (MIC) in the experiment with Listeria monocytogenes, with Staphylococcus aureus [1], against Pseudomonas aeruginosa [2], against Salmonella typhimurium and against Escherichia coli [3] was 1.95 to 62.5 µg/mL (≈ 4.37 to 140 µM) in each case.
Regarding `CCCCCCCCCCCCCCCCn1nnc(-c2n[nH]c(=S)n2N)c1-c1n[nH]c(=S)n1N`, the MIC in the experiment on Bacillus cereus, against Enterococcus faecalis, in the experiment with Staphylococcus aureus [4], with Proteus mirabilis, in the experiment on Escherichia coli [5] and in the experiment with Pseudomonas aeruginosa [6] was 1 to 128 µg/mL (≈ 1.92 to 245 µM) throughout. Also, the minimal inhibitory concentration (MIC) against Candida albicans [7] and against Aspergillus brasiliensis was 1 to 128 µg/mL (≈ 1.92 to 245 µM) in each case.
In the case of `CCCCCCCCCCCCn1nnc(-c2n[nH]c(=S)n2N)c1-c1n[nH]c(=S)n1N`, the MIC against Bacillus cereus, against Enterococcus faecalis, in the experiment with Staphylococcus aureus [4], in the experiment on Proteus mirabilis, in the experiment on Escherichia coli [5] and against Pseudomonas aeruginosa [6] was 1 to 128 µg/mL (≈ 2.15 to 275 µM) in each case. Also, the MIC against Candida albicans [7] and in the experiment on Aspergillus brasiliensis was 1 to 128 µg/mL (≈ 2.15 to 275 µM) in each case.
Take `NC[C@H]1O[C@H](O[C@H]2[C@H](O)[C@@H](O[C@H]3O[C@H](CO)[C@@H](O)[C@H](N)[C@H]3O)[C@H](N)C[C@@H]2N)[C@H](O)[C@@H](O)[C@@H]1O` [KANAMYCIN]: the MIC in the experiment with Staphylococcus aureus [8] and in the experiment on Bacillus anthracis was 31 to 1000 µg/mL (≈ 64 to 2060 µM) throughout.
Consider `CCCCCCCCCCCCCCCCn1nnc(-c2n[nH]c(=S)n2-c2ccccc2)c1-c1n[nH]c(=S)n1-c1ccccc1`, for which the minimal inhibitory concentration (MIC) in the experiment on Bacillus cereus, against Enterococcus faecalis, against Staphylococcus aureus [4], in the experiment with Proteus mirabilis, with Escherichia coli [5] and against Pseudomonas aeruginosa [6] was 1 to 128 µg/mL (≈ 1.55 to 199 µM) each time. The minimum inhibitory concentration (MIC) in the experiment on Candida albicans [7] and in the experiment with Aspergillus brasiliensis was 1 to 128 µg/mL (≈ 1.55 to 199 µM) each time.
As to `CN[C@H](CC(C)C)C(=O)N[C@H]1C(=O)N[C@@H](CC(N)=O)C(=O)N[C@H]2C(=O)N[C@H]3C(=O)N[C@H](C(=O)N[C@H](C(=O)O)c4cc(O)cc(O)c4-c4cc3ccc4O)[C@H](O)c3ccc(c(Cl)c3)Oc3cc2cc(c3O[C@@H]2O[C@H](CO)[C@@H](O)[C@H](O)[C@H]2O[C@H]2C[C@](C)(N)[C@H](O)[C@H](C)O2)Oc2ccc(cc2Cl)[C@H]1O` [VANCOMYCIN], the minimum inhibitory concentration (MIC) in the experiment with Staphylococcus aureus [8] and in the experiment with Bacillus anthracis was 8 µg/mL (≈ 5.52 µM) each time.
Take POLYMYXIN B: the MIC against Staphylococcus aureus [8] and with Bacillus anthracis was 31 to 1000 µg/mL each time.
As for `OC(Cn1cncn1)(Cn1cncn1)c1ccc(F)cc1F` [FLUCONAZOLE], the MIC with Candida albicans [9] is 10.2 µg/mL (≈ 33.3 µM); against Aspergillus niger, 9.4 µg/mL (≈ 30.7 µM); against Bacillus cereus, 4 µg/mL (≈ 13.1 µM); against Enterococcus faecalis it was 4 µg/mL (≈ 13.1 µM); in the experiment on Staphylococcus aureus [4] it was 4 µg/mL (≈ 13.1 µM); in the experiment on Proteus mirabilis it was 4 µg/mL (≈ 13.1 µM). Also, the MIC came to 4 µg/mL (≈ 13.1 µM) against Escherichia coli [5], 4 µg/mL (≈ 13.1 µM) with Pseudomonas aeruginosa [6], 1 µg/mL (≈ 3.27 µM) in the experiment on Candida albicans [7] and 1 µg/mL (≈ 3.27 µM) in the experiment on Aspergillus brasiliensis.
Turning to `CCCCCCCCCCCCCCn1nnc(-c2n[nH]c(=S)n2N)c1-c1n[nH]c(=S)n1N`, the minimal inhibitory concentration (MIC) against Bacillus cereus, in the experiment on Enterococcus faecalis, in the experiment with Staphylococcus aureus [4], in the experiment with Proteus mirabilis, in the experiment on Escherichia coli [5] and against Pseudomonas aeruginosa [6] was 1 to 16 µg/mL (≈ 2.03 to 32.4 µM) in each case. Besides, the MIC with Candida albicans [7] and with Aspergillus brasiliensis was 1 to 16 µg/mL (≈ 2.03 to 32.4 µM) in each case.
On to `Cc1nc(-c2ccccc2)sc1-c1nnc(S)n1/N=C/c1cccc(O)c1`, for which the minimal inhibitory concentration (MIC) against Listeria monocytogenes, against Staphylococcus aureus [1], against Pseudomonas aeruginosa [2], against Salmonella typhimurium and in the experiment on Escherichia coli [3] was 1.95 to 62.5 µg/mL (≈ 4.96 to 159 µM) throughout.
In the case of `CCCCCCCCCCCCn1nnc(-c2n[nH]c(=S)n2-c2ccccc2)c1-c1n[nH]c(=S)n1-c1ccccc1`, the MIC in the experiment on Bacillus cereus, with Enterococcus faecalis, with Staphylococcus aureus [4], against Proteus mirabilis, in the experiment on Escherichia coli [5] and against Pseudomonas aeruginosa [6] was 1 to 128 µg/mL (≈ 1.7 to 218 µM) in each case. The minimal inhibitory concentration (MIC) in the experiment on Candida albicans [7] and with Aspergillus brasiliensis was 1 to 128 µg/mL (≈ 1.7 to 218 µM) throughout.
